The subject of assay [1] is caErbb2 CMs. Nature of the assay: Cell-cycle re-entry (Ki67) of P7 caErbb2 CMs treated in vitro with inhibitors or factors. Format: cell-based, mouse. The note with it: P7 neonatal caErbb2 heart cells, treated in vitro for 2 days. The text has this:
(§1) Doxycycline inducible CM restricted overexpression of a constitutively active Erbb2 (caErbb2) was generated by crossing TetRE-caErbb2 mouse line^65 (a B6SJLF1/J transgenic line in which this mutated Erbb2 is placed under the control of a minimal CMV promoter and the tetracycline-responsive element) with αMHC-tTA^66, which expresses the tetracycline-responsive transcriptional activator (tTA) under the control of the human alpha myosin heavy chain promoter (αMHC) promoter (see FIG. 10A). αMHC-tTA strain was created in the FVB background and then the line was backcrossed to C57BL/6. Doxycycline (DOX, Harlan Laboratories) was administered in the food to repress transgene expression.
(§2) Primary cardiomyocytes were isolated from 1-day-old (P1) and 7-days-old (P7) mice using a neonatal dissociation kit (gentleMACS, Germany), according to the manufacturer's instructions, and cultured in gelatin-coated (0.1%, G1393, Sigma, St. Louis, Mo., USA) wells with DMEM/F12 medium supplemented with L-glutamine, Na-pyruvate, Non-essential amino acids, penicillin, streptomycin, 5% Horse serum and 10% FBS (hereafter referred to as “complete-medium”) at 37° C. and 5% CO2.
(§3) In cultures isolated from hearts of P7 ctrl and caErbb2-cOE animals, the cells were seeded in the aforementioned complete-medium for 48 hours, in the presence of the following substances: MEK/MAPKK kinase inhibitor regarded in the text as ERK inhibitor (2 μM, PD0325901, Tocris Bioscience, Bristol, UK), AKT1/2 inhibitor (5 μM, AKT inhibitor VIII, ApexBio, Houston, Tex., USA), GSK3β inhibitor (10 μM, CHIR-99021, Axon Medchem, Netherlands), β-Catenin inhibitor (10 μM, IWR-1, Sigma, St. Louis, Mo., USA), p38 inhibitor (10 μM SB202190, Merck Millipore, Massachusetts, USA), Periostin (500 ng/ml; BioVendor, Brno Czech Republic), FGF1 (100 ng/ml; R&D Systems, MN, USA). The dissolving reagents were added to unstimulated samples. Subsequently, cells were fixed in 4% PFA and stained for markers of interest.
(§4) Heart sections underwent deparaffinization, fixation in 4% PFA (5 minutes) and microwave antigen retrieval in EDTA or citric acid buffer, followed by gradual chilling. Then heart sections and cultured cells were processed in the following manner. Samples were permeabilized with 0.5% Triton X-100 in PBS for 5 minutes and blocked with 5% bovine serum albumin (BSA, Sigma, St. Louis, Mo., USA) in PBS containing 0.1% Triton for 1 hour at room temperature. Then samples were incubated 1 hour at room temperature or overnight at 4° C. with the following antibodies diluted in 3% BSA blocking solution: anti-Troponin T (1:200, ab33589, Abcam, Cambridge, Mass., USA), anti-Troponin I (1:200, ab47003, Abcam, Cambridge, Mass., USA) or anti-NKX2.5 (1:200, ab35842, Abeam, Cambridge, Mass., USA) Abs were used to identify CMs. Anti-Ki67 antibody (1:200, 275R, Cell Marque, Austin, Tex., USA) anti-BRDU antibody (1:100, G3G4, DSHB, Iowa City, Iowa, USA), anti-phosphorylated-Histone3 (pH3) antibody (1:200, SC-8656-R, Santa Cruz Biotechnology Inc., Santa Cruz, Calif., USA) and anti-Aurora B (1:100, 611082, BD Transduction Laboratories, Lexington, Ky., USA) were used to analyze cell cycle re-entry, DNA synthesis, karyokinesis and cytokinesis, respectively. Other Abs used in the study: anti-ErbB2 (1:50, sc-284, Santa Cruz Biotechnology Inc., Santa Cruz, Calif., USA), anti-αSMA (1:50, A5691, Sigma, St. Louis, Mo., USA), RUNX1 (1:200, ab92336, Abcam, Cambridge, Mass., USA), anti-DAB2 (1:200, sc-13982, Santa Cruz Biotechnology Inc., Santa Cruz, Calif., USA), anti-β-Catenin (1:200, ab32572, Abcam, Cambridge, Mass., USA). After three washes with PBS, 10 minutes each, samples were stained for 1 hour at room temperature or overnight at 4° C. with fluorescent secondary antibodies (Abeam, Cambridge, Mass., USA) followed by 10 minutes of DAPI (4,6-diamidino-2-phenylindole dihydrochloride) staining for nuclei visualization. […]

Assay [2] has as its system caErbb2 CMs. Description: Dedifferentiation (RUNX1 expression, sarcomeric disassembly) of P7 caErbb2 CMs treated in vitro with inhibitors or factors. Format: cell-based, mouse. The note with it: P7 neonatal caErbb2 heart cells, treated in vitro for 2 days.
Description: as §1, §2, §3, §4

Assay [3] has as its system caErbb2 CMs. Nature of the assay: Hypertrophy (cell area) of P7 caErbb2 CMs treated in vitro with inhibitors or factors. Format: cell-based, mouse. As to conditions: P7 neonatal caErbb2 heart cells, treated in vitro for 2 days.
Description: as §1, §2, §3, §4

The test system of assay [4] is β-Catenin in caErbb2 CMs. Description: β-Catenin immunofluorescence in P7 caErbb2 heart cells treated in vitro with inhibitors. The format is cell-based, mouse. As to conditions: P7 neonatal caErbb2 heart cells, 10 μM.
Description: as §1
Primary cardiomyocytes were isolated from 1-day-old (P1) and 7-days-old (P7) mice using a neonatal dissociation kit (gentleMACS, Germany), according to the manufacturer's instructions, and cultured in gelatin-coated (0.1%, G1393, Sigma, St. Louis, Mo., USA) wells with DMEM/F12 medium supplemented with L-glutamine, Na-pyruvate, Non-essential amino acids, penicillin, streptomycin, 5% Horse serum and 10% FBS (hereafter referred to as “complete-medium”) at 37° C. and 5% CO2. […]

In assay [5] the test system is P1 and P7 mouse CMs. Description: NRG1-stimulated proliferation of cultured P1 and P7 cardiomyocytes (Ki67, BrdU, pH3, AuroraB immunofluorescence, counting newly formed CMs). Format: cell-based. As to conditions: various NRG1 doses, 72 hours. On the procedure: as §2
In experiments involving administration of Neuregulin-1b (NRG1, R&D Systems, MN, USA), the cells were allowed to adhere for 48 hours in complete-medium. Subsequently, the medium was replaced with an FBS-deprived complete-medium containing the indicated NRG1 doses for 72 hours. BrdU (10 μM, B5002, Sigma, St. Louis, Mo., USA) was introduced along with NRG1. Cells were fixed in 4% PFA and stained for markers of interest.
(§5) Heart sections underwent deparaffinization, fixation in 4% PFA (5 minutes) and microwave antigen retrieval in EDTA or citric acid buffer, followed by gradual chilling. […] Slides were mounted with Immu-mount (9990412, Thermo scientific, MA, USA) and viewed under a fluorescence microscope (Nikon Intensilight or Nikon eclipse 90i, Nikon, Düsseldorf, Germany) or spinning disk confocal microscope (Carl Zeiss, Thornwood, N.Y., USA) as specified in the figure legends.

The subject of assay [6] is neonatal Erbb2-cKO CMs. Description: NRG1-stimulated proliferation of cultured CMs from P1 Erbb2-cKO mice (Ki67, pH3, newly formed CMs). As to conditions: CMs isolated from P1 Erbb2-cKO mice, NRG1 in vitro. Format: cell-based, mouse.
Description: CM-restricted deletion of Erbb2 (Erbb2-cKO) was generated by crossing Erbb2^flox/flox 41 to Erbb2^lacZ/+; αMHC-Cre mice (see FIG. 2A). The Erbb2^lacZ/+ mice used in this study carry an allele that encodes a nonfunctional ErbB2-galactosidase fusion protein lacking the tyrosine kinase domain^42. In some experiments, addition of ROSA26-tdTomato allele to this system has been used to label cardiac muscle cell lineage in Erbb2-cKO mice. Erbb2^flox/flox and Erbb2^lacZ/+ mice were maintained on a C57BL/6 background. […]
as §5

“Also recorded” adds a separate entry of the source.

Consider `O=C(Nc1cccc2cccnc12)c1ccc(N2C(=O)[C@@H]3[C@H](C2=O)[C@@H]2C=C[C@H]3C2)cc1` [β-Catenin inhibitor, IWR-1], for which the “caErbB2-induced CM proliferation / cell cycle re-entry (Ki67)” value in assay [1] is given as “without significantly affecting”. Further, the “RUNX1 expression in caErbb2 CMs” value in assay [2] is on record as “reduced”. For the same molecule, the “caErbB2-induced hypertrophic response (CM cell area)” value in assay [3] was “without significantly affecting”.
With `O=c1[nH]c2ccccc2n1C1CCN(Cc2ccc(-c3nc4cc5[nH]cnc5cc4nc3-c3ccccc3)cc2)CC1` [AKT inhibitor, AKT inhibitor VIII], the “caErbB2-induced CM proliferation / cell cycle re-entry (Ki67)” value in assay [1] is listed as “moderate effect”. Further, the “caErbB2-induced CM dedifferentiation (sarcomeric disassembly and RUNX1 expression)” value in assay [2] is on record as “promoted massive dedifferentiation”. Also, in assay [3], the “caErbB2-induced hypertrophic response (CM cell area)” value is “reduced hypertrophic response”.
`Cc1c[nH]c(-c2cnc(NCCNc3ccc(C#N)cn3)nc2-c2ccc(Cl)cc2Cl)n1` [GSK3β inhibitor, CHIR-99021]: in assay [1], the “caErbB2-induced CM proliferation / cell cycle re-entry (Ki67)” value is on record as “promoted β-Catenin independent increase in cell cycle activity”. Further, the “RUNX1 expression in caErbb2 CMs” value in assay [2] is on record as “further increased”. Besides, the “β-Catenin accumulation in caErbb2 CMs” value in assay [4] is reported as “further increased”.
On to `Oc1ccc(-c2nc(-c3ccncc3)c(-c3ccc(F)cc3)[nH]2)cc1` [p38 inhibitor, SB202190], for which the “caErbB2-induced CM proliferation / cell cycle re-entry (Ki67)” value in assay [1] was “enhanced”. Also, in assay [2], the “RUNX1 expression in caErbb2 CMs” value is reported as “increased”. In addition, the “caErbB2-induced hypertrophic response (CM cell area)” value in assay [3] is on record as “No obvious effects”.
Regarding Neuregulin-1b [NRG1], the “CM proliferation (cell cycle activity, DNA synthesis, mitosis, cytokinesis, newly formed CMs)” value in assay [5] (P1 mouse CMs in vitro) was “dose-dependent increase”; in assay [5] (P7 mouse CMs in vitro), “profoundly reduced effects; also recorded: diminished”. The “CM proliferation (Ki67, pH3, newly formed CMs)” value in assay [6] is listed as “unable to induce CM proliferation”.
Turning to `O=C(NOC[C@H](O)CO)c1ccc(F)c(F)c1Nc1ccc(I)cc1F` [ERK inhibitor, PD0325901], in assay [1], the “caErbB2-induced CM proliferation / cell cycle re-entry (Ki67)” value was “completely suppressed”. Also, in assay [2], the “caErbB2-induced CM dedifferentiation (sarcomeric disassembly and RUNX1 expression)” value is “completely suppressed”. The “caErbB2-induced hypertrophic response (CM cell area)” value in assay [3] was “reduced the hypertrophic response”.
Turning to FGF1, the “caErbB2-induced CM proliferation / cell cycle re-entry (Ki67)” value in assay [1] is listed as “enhanced”. Further, the “RUNX1 expression in caErbb2 CMs” value in assay [2] was “p38 inhibition, in contrast to FGF1 and Periostin, increased RUNX1 expression”. Also, the “caErbB2-induced hypertrophic response (CM cell area)” value in assay [3] is reported as “No obvious effects”.

B1: Periostin (protein, UniProt Q15063 22-836, looked up)
Periostin: NNHYDKILAHSRIRGRDQGPNVCALQQILGTKKKYFSTCKNWYKKSICGQKTTVLYECCPGYMRMEGMKGCPAVLPIDHVYGTLGIVGATTTQRYSDASKLREEIEGKGSFTYFAPSNEAWDNLDSDIRRGLESNVNVELLNALHSHMINKRMLTKDLKNGMIIPSMYNNLGLFINHYPNGVVTVNCARIIHGNQIATNGVVHVIDRVLTQIGTSIQDFIEAEDDLSSFRAAAITSDILEALGRDGHFTLFAPTNEAFEKLPRGVLERIMGDKVASEALMKYHILNTLQCSESIMGGAVFETLEGNTIEIGCDGDSITVNGIKMVNKKDIVTNNGVIHLIDQVLIPDSAKQVIELAGKQQTTFTDLVAQLGLASALRPDGEYTLLAPVNNAFSDDTLSMDQRLLKLILQNHILKVKVGLNELYNGQILETIGGKQLRVFVYRTAVCIENSCMEKGSKQGRNGAIHIFREIIKPAEKSLHEKLKQDKRFSTFLSLLEAADLKELLTQPGDWTLFVPTNDAFKGMTSEEKEILIRDKNALQNIILYHLTPGVFIGKGFEPGVTNILKTTQGSKIFLKEVNDTLLVNELKSKESDIMTTNGVIHVVDKLLYPADTPVGNDQLLEILNKLIKYIQIKFVRGSTFKEIPVTVYTTKIITKVVEPKIKVIEGSLQPIIKTEGPTLTKVKIEGEPEFRLIKEGETITEVIHGEPIIKKYTKIIDGVPVEITEKETREERIITGPEIKYTRISTGGGETEETLKKLLQEEVTKVTKFIEGGDGHLFEDEEIKRLLQGDTPVRKLQANKKVQGSRRRLREGRSQ
notes: Periostin protein (500 ng/ml; BioVendor)
Regarding B1, in assay [1], the “caErbB2-induced CM proliferation / cell cycle re-entry (Ki67)” value was “enhanced”. In assay [2], the “RUNX1 expression in caErbb2 CMs” value was “p38 inhibition, in contrast to FGF1 and Periostin, increased RUNX1 expression”. Besides, in assay [3], the “caErbB2-induced hypertrophic response (CM cell area)” value is “No obvious effects”.

Source of the values: patent publication US10017574B2, “Methods, kits and devices for promoting cardiac regeneration” (Yeda Research and Development Co. Ltd., priority 2015, dated 2018).
